Results reported in patent US20120258960A1, “NOVEL MULTIFUNCTIONAL PEPTIDASE INHIBITORS, ESPECIALLY FOR MEDICAL USE” (IMTM GMBH, priority 2009, published 2012).

How the values were obtained:
[1] = target: purified, recombinant human DPIV (Homo sapiens, UniProt P27487); assay: Measurement of DPIV activity (fluorogenic substrate (Ala-Pro)2-R110)
Description: The enzymatic activity of DPIV was assessed by the hydrolysis of the fluorogenic substrate bis-(L-alanyl-prolyl)-Rhodamin-110 (bis-trifluoracetate, abbreviation (Ala-Pro)2-R110). The final substrate concentration was 0.5 μM.
The assay was performed in white microtitre plates for fluorescence measurements. The test items, substrate and enzyme were diluted in assay buffer. […] As controls, the DPIV activity in the absence of test items as well as the spontaneous hydrolysis of the substrate was determined.

[2] = target: human recombinant Aminopeptidase N (Homo sapiens, UniProt P15144); assay: Measurement of APN activity (fluorogenic substrate (Ala)2-R110); type: biochemical; details: human recombinant APN approx. 5 nM, substrate 0.5 μM, pH 7.5
Chain of human recombinant Aminopeptidase N (P15144 whole entry): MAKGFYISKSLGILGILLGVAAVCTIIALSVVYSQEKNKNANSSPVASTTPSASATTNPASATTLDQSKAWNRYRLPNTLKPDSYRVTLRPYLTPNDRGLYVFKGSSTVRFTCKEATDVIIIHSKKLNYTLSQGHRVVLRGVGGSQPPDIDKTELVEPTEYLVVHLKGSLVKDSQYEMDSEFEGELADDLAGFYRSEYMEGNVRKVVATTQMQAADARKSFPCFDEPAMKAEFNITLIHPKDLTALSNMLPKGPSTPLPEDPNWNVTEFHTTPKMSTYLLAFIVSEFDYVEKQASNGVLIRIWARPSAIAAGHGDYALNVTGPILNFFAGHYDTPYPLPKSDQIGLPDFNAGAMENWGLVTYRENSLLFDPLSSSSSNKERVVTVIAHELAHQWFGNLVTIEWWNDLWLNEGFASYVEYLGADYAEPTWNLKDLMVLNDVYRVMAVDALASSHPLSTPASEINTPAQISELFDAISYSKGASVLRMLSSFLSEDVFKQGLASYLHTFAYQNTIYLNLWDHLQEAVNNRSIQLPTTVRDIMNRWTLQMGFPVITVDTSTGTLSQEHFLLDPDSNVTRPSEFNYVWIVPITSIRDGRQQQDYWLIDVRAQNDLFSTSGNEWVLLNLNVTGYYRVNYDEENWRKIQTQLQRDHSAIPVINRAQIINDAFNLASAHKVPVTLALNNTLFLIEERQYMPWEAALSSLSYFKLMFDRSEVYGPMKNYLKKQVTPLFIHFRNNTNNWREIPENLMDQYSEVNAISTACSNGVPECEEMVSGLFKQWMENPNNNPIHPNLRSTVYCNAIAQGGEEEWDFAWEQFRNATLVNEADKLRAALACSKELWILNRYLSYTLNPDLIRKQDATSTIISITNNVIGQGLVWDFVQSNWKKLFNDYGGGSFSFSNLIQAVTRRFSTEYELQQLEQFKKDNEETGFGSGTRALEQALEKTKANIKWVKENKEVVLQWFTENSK
Description: Inhibitory effects of test items on the enzymatic activity of human recombinant Aminopeptidase N (final concentration approx. 5 nM) were assessed by using the fluorogenic substrate bis-(L-alanyl)-Rhodamine-110 (bis-trifluoracetate, abbreviation (Ala)2-R110) at a final concentration of 0.5 μM. The assay was performed in 0.05 M TRIS/HCl buffer pH 7.5, supplemented with 0.05% Triton (v/v), 0.05% BSA (w/v), 2 mM MgCl2.
The assay was performed in white microtitre plates for fluorescence measurements.
As controls, (Ala)2-R110 hydrolyzing activity in the absence of any test item as well as the spontaneous substrate hydrolysis was determined.
The release of the fluorescent hydrolysis product Rhodamine 110 was measured at an excitation wavelength of 485 nm and an emission wavelength of 530 nm by using a microtitre fluorescence reader immediately after substrate addition as well as after 30, 60 and 120 min.

Chain of purified, recombinant human DPIV (P27487 whole entry): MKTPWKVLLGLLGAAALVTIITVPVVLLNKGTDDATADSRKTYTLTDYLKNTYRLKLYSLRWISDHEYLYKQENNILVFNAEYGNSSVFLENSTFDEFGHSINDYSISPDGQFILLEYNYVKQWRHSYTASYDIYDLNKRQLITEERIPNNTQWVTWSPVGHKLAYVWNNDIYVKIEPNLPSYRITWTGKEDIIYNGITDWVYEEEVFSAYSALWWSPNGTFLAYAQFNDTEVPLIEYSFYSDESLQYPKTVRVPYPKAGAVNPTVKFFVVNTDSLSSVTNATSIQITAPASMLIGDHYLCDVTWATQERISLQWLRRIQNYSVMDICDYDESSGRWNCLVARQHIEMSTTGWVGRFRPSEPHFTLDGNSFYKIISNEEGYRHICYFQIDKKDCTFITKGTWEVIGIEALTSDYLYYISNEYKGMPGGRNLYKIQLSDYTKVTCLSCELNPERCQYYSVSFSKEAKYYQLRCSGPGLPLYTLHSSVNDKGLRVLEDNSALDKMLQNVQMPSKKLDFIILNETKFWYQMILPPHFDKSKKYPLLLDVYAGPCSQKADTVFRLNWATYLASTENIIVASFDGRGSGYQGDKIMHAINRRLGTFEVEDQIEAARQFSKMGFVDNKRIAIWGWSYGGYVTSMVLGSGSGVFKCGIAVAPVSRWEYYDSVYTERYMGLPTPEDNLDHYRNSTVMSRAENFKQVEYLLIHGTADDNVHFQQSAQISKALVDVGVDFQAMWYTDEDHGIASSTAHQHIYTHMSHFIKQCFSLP

Row | IC50 [1] [nM] | IC50 [2] [µM] | SMILES
1 | 2200 | > 25 | CC(C)(CNC(=O)CC(N)Cc1ccccc1)CNC(=O)CC(O)C(N)Cc1ccccc1 (stereo not drawn) [drawing 24]
2 | > 50000 | > 50 | CCCC(=O)NC(CC(=O)NCC(C)(C)CNC(=O)C(O)C(Cc1ccccc1)NC(=O)CCC)Cc1cc(F)ccc1F (stereo not drawn) [drawing 38]
3 | 8000 |  | CCCCCCCCCCCCCCCC(=O)OC(C(=O)NCCCCNC(=O)CC(N)Cc1cc(F)ccc1F)C(N)Cc1ccccc1 (stereo not drawn) [drawing 53]
4 | 28000 | 1.5 | NC(CC(=O)NCCNC(=O)C(O)C(N)Cc1ccccc1)Cc1ccc2ccccc2c1 (stereo not drawn) [drawing 13]
5 | 190 | 0.85 | NC(CC(=O)NCC1(CNC(=O)C(O)C(N)Cc2ccccc2)CCCCC1)Cc1cc(F)ccc1F (stereo not drawn) [drawing 67]
6 | 70 | 10 | NC(CC(=O)N1CCCN(C(=O)C(O)C(N)Cc2ccccc2)CC1)Cc1cc(F)ccc1F (stereo not drawn) [drawing 65]
7 | 1000 | > 50 | NC(CC(=O)NCCNC(=O)CC(O)C(N)Cc1ccccc1)Cc1ccccc1 (stereo not drawn) [drawing 18]
8 | 100 | 0.346 | CC(C)(CNC(=O)CC(N)Cc1cc(F)ccc1F)CNC(=O)C(O)C(N)Cc1ccc(-c2ccccc2)cc1 (stereo not drawn) [drawing 75]
9 | 300 | 15 | CC(C)(CNC(=O)CC(N)Cc1cc(F)ccc1F)CNC(=O)C(OC(=O)CCCc1ccccc1)C(N)Cc1ccccc1 (stereo not drawn) [drawing 49]
10 | 100 | 0.07 | NC(CC(=O)NCC1(CNC(=O)C(O)C(N)Cc2ccccc2)CCC1)Cc1cc(F)ccc1F (stereo not drawn) [drawing 57]
11 | 120 | > 50 | CCCCCCCC(=O)OC(C(=O)NCCCCNC(=O)CC(N)Cc1cc(F)ccc1F)C(N)Cc1ccccc1 (stereo not drawn) [drawing 50]
12 | 5500 | 32 | CCCCCCCCCCCCCC(=O)NC(CC(=O)NCC(C)(C)CNC(=O)C(O)C(Cc1ccccc1)NC(=O)CCCCCCCCCCCCC)Cc1cc(F)ccc1F (stereo not drawn) [drawing 58]
13 | > 50000 | > 50 | CCCCCCCC(=O)NC(CC(=O)NCC(C)(C)CNC(=O)C(O)C(Cc1ccccc1)NC(=O)CCCCCCC)Cc1cc(F)ccc1F (stereo not drawn) [drawing 33]
14 | 900 | > 50 | NC(CC(=O)N1CCN(C(=O)CC(O)C(N)Cc2ccccc2)CC1)Cc1ccccc1 (stereo not drawn) [drawing 16]
15 | 100 | 0.06 | CC(C)(CNC(=O)CC(N)Cc1cc(F)ccc1F)CNC(=O)C(O)C(N)Cc1ccccc1 (stereo not drawn) [drawing 26]
16 | 80 | 0.14 | NC(CC(=O)NCCCCNC(=O)C(O)C(N)Cc1ccccc1)Cc1cc(F)ccc1F (stereo not drawn) [drawing 25]
17 | 500 | 0.35 | NC(CC(=O)Nc1cccc(NC(=O)C(O)C(N)Cc2ccccc2)c1)Cc1cc(F)ccc1F (stereo not drawn) [drawing 64]
18 | 200 | 15.4 | CN(CCCNC(=O)CC(N)Cc1cc(F)ccc1F)C(=O)C(O)C(N)Cc1ccccc1 (stereo not drawn) [drawing 40]
19 | 200 | 6.2 | NC(CC(=O)NC(CCCNC(=O)C(O)C(N)Cc1ccccc1)C(=O)O)Cc1cc(F)ccc1F (stereo not drawn) [drawing 35]
20 | 96 | 0.0008 | CC(C)(CNC(=O)CC(N)Cc1cc(F)ccc1F)CNC(=O)C(O)C(N)Cc1ccc(-c2cccnc2)cc1 (stereo not drawn) [drawing 76]

Row | IC50 [1] [nM] | IC50 [2] [µM] | SMILES
21 | 2700 | 0.18 | NC(CC(=O)NCCCCNC(=O)C(O)C(N)Cc1ccccc1)Cc1ccccc1 (stereo not drawn) [drawing 23]
22 | 40000 | 1.9 | CC(C)(CNC(=O)CC(N)Cc1cc(F)ccc1F)CNC(=O)C1OC(=O)NC1Cc1ccc(-c2ccccc2)cc1 (stereo not drawn) [drawing 69]
23 | 800 | 2.9 | NC(CC(=O)NCCNC(=O)C(O)C(N)Cc1ccccc1)Cc1ccccc1 (stereo not drawn) [drawing 14]
24 | 60 | 0.03 | CCCCCCCCCCCCCCCC(=O)OC(C(=O)NCC(C)(C)CNC(=O)CC(N)Cc1cc(F)ccc1F)C(N)Cc1ccccc1 (stereo not drawn) [drawing 43]
25 | 800 | 27 | NC(CC(=O)N1CCN(C(=O)C(O)C(N)Cc2ccccc2)CC1)Cc1ccccc1 (stereo not drawn) [drawing 17]
26 | 1200 | 0.41 | NC(CC(=O)NCCCCCCNC(=O)C(O)C(N)Cc1ccccc1)Cc1ccccc1 (stereo not drawn) [drawing 28]
27 | 25000 | > 50 | CCCCCCCCCCCCCCCCOC(C(=O)NCC(C)(C)CNC(=O)CC(N)Cc1cc(F)ccc1F)C(N)Cc1ccccc1 (stereo not drawn)
28 | 2000 | 0.18 | CC(C)(CNC(=O)CC(N)Cc1ccccc1)CNC(=O)C(O)C(N)Cc1ccccc1 (stereo not drawn) [drawing 21]
29 | 4600 | > 50 | CC(C)(CNC(=O)CC(N)Cc1cc(F)ccc1F)CNC(=O)C(O)C(N)Cc1ccc(O)cc1 (stereo not drawn) [drawing 73]
30 | 100 | > 50 | CC(C)(CCNC(=O)CC(N)Cc1cc(F)ccc1F)CNC(=O)C(O)C(N)Cc1ccccc1 (stereo not drawn) [drawing 36]
31 | 178 | 8.5 | CN(CCCN(C)C(=O)C(O)C(N)Cc1ccccc1)C(=O)CC(N)Cc1cc(F)ccc1F (stereo not drawn) [drawing 32]
32 | 2600 | 2.8 | CCC(CC)(CNC(=O)CC(N)Cc1ccccc1)CNC(=O)C(O)C(N)Cc1ccccc1 (stereo not drawn) [drawing 22]
33 | 100 | 0.3 | CCC(CC)(CNC(=O)CC(N)Cc1cc(F)ccc1F)CNC(=O)C(O)C(N)Cc1ccccc1 (stereo not drawn) [drawing 59]
34 | 450 | 0.87 | CC(C(=O)NCC(C)(C)CNC(=O)C(O)C(N)Cc1ccccc1)C(N)Cc1cc(F)ccc1F (stereo not drawn) [drawing 60]
35 | 200 | > 50 | CCCCCCCCCC(=O)OC(C(=O)NCC(C)(C)CNC(=O)CC(N)Cc1cc(F)ccc1F)C(N)Cc1ccccc1 (stereo not drawn) [drawing 48]
36 | 120 | 0.03 | NC(CC(=O)NC1CCCC(NC(=O)C(O)C(N)Cc2ccccc2)C1)Cc1cc(F)ccc1F (stereo not drawn) [drawing 63]
37 | 30000 | 0.33 | CC(C)(CNCC(N)Cc1cc(F)ccc1F)CNC(=O)C(O)C(N)Cc1ccccc1 (stereo not drawn) [drawing 70]
38 | 1700 | > 50 | NC(CC(=O)NCCCCNC(=O)C(O)C(N)Cc1ccccc1)C(=O)N1CCSC1 (stereo not drawn) [drawing 42]
39 | > 50000 | 0.15 | CC(C)(CNC(=O)CC(CN)Cc1ccccc1)CNC(=O)C(O)C(N)Cc1ccccc1 (stereo not drawn) [drawing 34]
40 | 300 | 0.2 | CCCCCCCC(=O)OC(C(=O)NCC(C)(C)CNC(=O)CC(N)Cc1cc(F)ccc1F)C(N)Cc1ccccc1 (stereo not drawn) [drawing 41]

Row | IC50 [1] [nM] | IC50 [2] [µM] | SMILES
41 | 160 | 0.08 | NC(CC(=O)NCC1(CNC(=O)C(O)C(N)Cc2ccccc2)CCCC1)Cc1cc(F)ccc1F (stereo not drawn) [drawing 68]
42 | 13800 | 16.7 | CC(C)(NC(=O)CC(N)Cc1ccccc1)C(C)(C)NC(=O)C(O)C(N)Cc1ccccc1 (stereo not drawn) [drawing 20]
43 | 1000 | 21 | CCCCCCCCCCCCCC(=O)OC(C(=O)NCC(C)(C)CNC(=O)CC(N)Cc1cc(F)ccc1F)C(N)Cc1ccccc1 (stereo not drawn) [drawing 46]
44 | 100 | 0.06 | NC(CC(=O)NCCCCNC(=O)C(O)C(N)Cc1ccc(Br)cc1)Cc1cc(F)ccc1F (stereo not drawn) [drawing 61]
45 | > 50000 | > 50 | CCCCCCCCCCCCCCCCNC(CC(=O)NCC(C)(C)CNC(=O)C(O)C(Cc1ccccc1)NCCCCCCCCCCCCCCCC)Cc1cc(F)ccc1F (stereo not drawn) [drawing 66]
46 | 470 | > 50 | NC(CC(=O)NCCCCNC(=O)C(O)C(N)Cc1ccc(C(=O)O)cc1)Cc1cc(F)ccc1F (stereo not drawn) [drawing 45]
47 | 160 | 5.6 | NC(CC(=O)NCCNC(=O)C(O)C(N)Cc1ccccc1)Cc1cc(F)ccc1F (stereo not drawn) [drawing 15]
48 | 20 | > 50 | CCCCCCCC(=O)OC(C(=O)N(C)CCCNC(=O)CC(N)Cc1cc(F)ccc1F)C(N)Cc1ccccc1 (stereo not drawn) [drawing 44]
49 | 100 | 0.01 | CC(C)(CNC(=O)CC(N)Cc1cc(F)ccc1F)CNC(=O)C(O)C(N)Cc1ccc(-c2cncnc2)cc1 (stereo not drawn) [drawing 77]
50 | 460 | 0.0005 | NC(CNC(=O)c1cccc(NC(=O)C(O)C(N)Cc2ccc(-c3ccsc3)cc2)c1)Cc1cc(F)ccc1F (stereo not drawn) [drawing 78]
51 | 30 | 1.9 | CCCCCC(=O)OC(C(=O)NCC(C)(C)CNC(=O)CC(N)Cc1cc(F)ccc1F)C(N)Cc1ccccc1 (stereo not drawn) [drawing 55]
52 | 100 | 0.001 | CC(C)(CNC(=O)CC(N)Cc1cc(F)ccc1F)CNC(=O)C(O)C(N)Cc1ccc(-c2ccsc2)cc1 (stereo not drawn) [drawing 74]
53 | 775 | 0.0008 | NC(CNC(=O)c1cccc(NC(=O)C(O)C(N)Cc2ccc(-c3cccnc3)cc2)c1)Cc1cc(F)ccc1F (stereo not drawn) [drawing 79]
54 | 14000 | > 50 | CCCCCCCCOC(C(=O)NCC(C)(C)CNC(=O)CC(N)Cc1cc(F)ccc1F)C(N)Cc1ccccc1 (stereo not drawn)
55 | 2670 | 0.12 | NC(CC(=O)NCCCCCNC(=O)C(O)C(N)Cc1ccccc1)Cc1ccccc1 (stereo not drawn) [drawing 27]
56 | 280 | 22 | C[C@@H]1CN(C(=O)CC(O)C(N)Cc2ccccc2)C[C@H](C)N1C(=O)CC(N)Cc1ccccc1 (stereo partly drawn) [drawing 19]
57 | > 50000 | 11.5 | CN(CCCNC(=O)OCc1ccccc1)C(=O)C(O)C(N)Cc1ccccc1 (stereo not drawn) [drawing 72]
58 | 2120 | 2 | CC(C)(CNC(=O)CC(N)C(=O)N1CCSC1)CNC(=O)C(O)C(N)Cc1ccccc1 (stereo not drawn) [drawing 30]
59 | 80 |  | CCCC(=O)OC(C(=O)NCC(C)(C)CNC(=O)CC(N)Cc1cc(F)ccc1F)C(N)Cc1ccccc1 (stereo not drawn) [drawing 54]
60 |  | 0.02 | NC(CC(=O)Nc1ccc(NC(=O)C(O)C(N)Cc2ccccc2)cc1)Cc1cc(F)ccc1F (stereo not drawn) [drawing 39]
